Experimental findings from US20250122218A1, “MODULATORS OF CYSTIC FIBROSIS TRANSMEMBRANE CONDUCTANCE REGULATOR” (Vertex Pharmaceuticals Incorporated, priority 2022, published 2025) are described below.

Broadly, the EC50 is the midpoint of the concentration-response curve.

Structures are written as SMILES.

This experiment concerns the target T1, CFTR in F508del/MF-HBE cells (Homo sapiens, UniProt P13569, DEL508-508).
T1 construct: human bronchial epithelial (HBE) cells derived from CF subjects heterozygous for F508del and a minimal function CFTR mutation; endogenous in cells; host or cells: primary human bronchial epithelial cells from CF subjects (F508del/MF-HBE)
Briefly: Ussing chamber assay of CFTR-mediated short-circuit currents (identification of potentiator compounds). The format is cell-based. Conditions: potentiator incubated 18-24 hours at 37° C. in combination with 10 μM corrector, in the presence of 20% human serum, CFTR-mediated ISC. In outline:
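Short-circuit current was measured in Ussing chambers at 37° C, Vhold 0 mV, 30 μM apical amiloride. CFTR current was defined as the forskolin (20 μM) response relative to the current remaining after BPO/GlyH-101/inhibitor 172 (20 μM each). Before recording, cells had 18-24 h exposure to test potentiators with 10 μM corrector compound in 20% human serum.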

T1 sequence (P13569 with tags, fused parts or gaps DEL508-508): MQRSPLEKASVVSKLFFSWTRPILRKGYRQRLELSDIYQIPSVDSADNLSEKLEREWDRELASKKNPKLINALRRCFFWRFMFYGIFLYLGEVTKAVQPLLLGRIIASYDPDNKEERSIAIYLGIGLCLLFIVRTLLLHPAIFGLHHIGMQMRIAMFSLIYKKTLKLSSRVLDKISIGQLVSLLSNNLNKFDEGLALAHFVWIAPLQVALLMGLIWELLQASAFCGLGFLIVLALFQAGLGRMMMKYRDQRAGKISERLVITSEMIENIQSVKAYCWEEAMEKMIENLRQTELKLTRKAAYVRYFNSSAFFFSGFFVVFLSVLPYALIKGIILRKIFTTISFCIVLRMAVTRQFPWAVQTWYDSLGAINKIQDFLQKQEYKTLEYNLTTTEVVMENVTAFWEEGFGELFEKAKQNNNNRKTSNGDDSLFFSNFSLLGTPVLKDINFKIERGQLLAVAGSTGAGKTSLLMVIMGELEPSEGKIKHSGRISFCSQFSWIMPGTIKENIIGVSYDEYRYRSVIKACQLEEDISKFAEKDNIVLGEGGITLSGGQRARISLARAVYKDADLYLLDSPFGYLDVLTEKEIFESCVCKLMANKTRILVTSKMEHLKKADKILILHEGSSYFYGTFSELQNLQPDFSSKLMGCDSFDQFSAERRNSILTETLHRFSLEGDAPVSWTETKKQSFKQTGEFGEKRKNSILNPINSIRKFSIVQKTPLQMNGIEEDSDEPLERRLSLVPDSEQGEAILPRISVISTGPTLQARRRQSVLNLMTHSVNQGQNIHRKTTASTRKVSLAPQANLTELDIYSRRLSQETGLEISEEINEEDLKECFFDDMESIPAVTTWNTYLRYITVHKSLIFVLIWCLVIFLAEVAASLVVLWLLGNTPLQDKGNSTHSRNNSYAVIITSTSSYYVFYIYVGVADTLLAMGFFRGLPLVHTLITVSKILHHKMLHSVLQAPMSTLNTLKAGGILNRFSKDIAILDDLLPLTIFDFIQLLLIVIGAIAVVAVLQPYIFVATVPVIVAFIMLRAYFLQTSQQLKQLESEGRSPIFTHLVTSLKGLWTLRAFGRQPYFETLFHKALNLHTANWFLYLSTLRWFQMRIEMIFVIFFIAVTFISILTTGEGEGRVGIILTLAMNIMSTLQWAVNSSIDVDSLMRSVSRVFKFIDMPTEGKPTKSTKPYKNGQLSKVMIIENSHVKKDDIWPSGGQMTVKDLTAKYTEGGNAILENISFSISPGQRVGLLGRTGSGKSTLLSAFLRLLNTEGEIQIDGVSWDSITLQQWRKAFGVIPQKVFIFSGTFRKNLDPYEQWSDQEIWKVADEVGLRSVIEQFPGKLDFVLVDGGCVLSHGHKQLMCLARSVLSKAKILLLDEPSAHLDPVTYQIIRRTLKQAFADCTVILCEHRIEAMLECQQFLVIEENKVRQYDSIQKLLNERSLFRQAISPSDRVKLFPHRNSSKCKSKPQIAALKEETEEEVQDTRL

For `Nc1cc(C(F)(F)F)c2nc1-c1nnc(o1)[C@@](O)(C(F)(F)F)CCCCCN(Cc1ccc(Cl)cc1)C2=O` [Compound 144, (6R)-17-amino-12-[(4-chlorophenyl)methyl]-6-hydroxy-6,15-bis (trifluoromethyl)-19-oxa-3,4,12,18-tetrazatricyclo [12.3.1.12,5] nonadeca-1(18),2,4,14,1 6-pentaen-13-one], the EC50 is < 0.5 µM.
On to `Nc1cc(C(F)(F)F)c2nc1-c1nnc(o1)[C@@](O)(C(F)(F)F)CCCCCN(Cc1ccc(F)cc1F)C2=O` [Compound 145, (6R)-17-amino-12-[(2,4-difluorophenyl)methyl]-6-hydroxy-6,15-bis (trifluoromethyl)-19-oxa-3,4,12,18-tetrazatricyclo [12.3.1.12,5] nonadeca-1(18),2,4,14,1 6-pentaen-13-one], for which the EC50 is < 0.5 µM.
In the case of `Nc1cc(C(F)(F)F)c2nc1-c1nnc(o1)[C@@](O)(C(F)(F)F)CCCCCN(Cc1ccc(F)c(F)c1)C2=O` [Compound 146, (6R)-17-amino-12-[(3,4-difluorophenyl)methyl]-6-hydroxy-6,15-bis (trifluoromethyl)-19-oxa-3,4,12,18-tetrazatricyclo [12.3.1.12,5] nonadeca-1(18),2,4,14,1 6-pentaen-13-one], the EC50 was < 0.5 µM.
On to `Nc1cc(C(F)(F)F)c2nc1-c1nnc(o1)[C@@](O)(C(F)(F)F)CCCCCN(Cc1ccc(C(F)(F)F)nc1)C2=O` [Compound 147, (6R)-17-amino-6-hydroxy-6,15-bis (trifluoromethyl)-12-[[6-(trifluoromethyl)-3-pyridyl]methyl]-19-oxa-3,4,12,18-tetrazatricyclo [12.3.1.12,5] nonadeca-1(18),2,4,14,1 6-pentaen-13-one], for which the EC50 was < 0.5 µM.
Under `CCCc1cccc(CN2CCCCC[C@](O)(C(F)(F)F)C3=NN=C(O3)c3nc(c(C(F)(F)F)cc3N)C2=O)c1` [Compound 148, (6R)-17-amino-6-hydroxy-12-[(3-propylphenyl)methyl]-6,15-bis (trifluoromethyl)-19-oxa-3,4,12,18-tetrazatricyclo [12.3.1.12,5] nonadeca-1(18),2,4,14,1 6-pentaen-13-one] stands < 0.5 µM; under `Nc1cc(C(F)(F)F)c2nc1-c1nnc(o1)[C@@](O)(C(F)(F)F)CCCCCN(Cc1cccc(Cl)c1)C2=O` [Compound 149, (6R)-17-amino-12-[(3-chlorophenyl)methyl]-6-hydroxy-6,15-bis (trifluoromethyl)-19-oxa-3,4,12,18-tetrazatricyclo [12.3.1.12,5] nonadeca-1(18),2,4,14,1 6-pentaen-13-one], < 0.5 µM.
In the case of `CC1(C)Cc2cc(CN3CCCCC[C@](O)(C(F)(F)F)C4=NN=C(O4)c4nc(c(C(F)(F)F)cc4N)C3=O)ccc2O1` [Compound 150, (6R)-17-amino-12-[(2,2-dimethyl-3H-benzofuran-5-yl)methyl]-6-hydroxy-6,15-bis (trifluoromethyl)-19-oxa-3,4,12,18-tetrazatricyclo [12.3.1.12,5] nonadeca-1(18),2,4,14,1 6-pentaen-13-one], the EC50 is < 0.5 µM.
Regarding `Nc1cc(C(F)(F)F)c2nc1-c1nnc(o1)[C@@](O)(C(F)(F)F)CCCCCN(Cc1ccc(C3(C(F)(F)F)CC3)cc1)C2=O` [Compound 151], the EC50 was < 0.5 µM.
Consider `Nc1cc(C(F)(F)F)c2nc1-c1nnc(o1)[C@@](O)(C(F)(F)F)CCCCCN([C@H]1C[C@@H](c3ccccc3)C1)C2=O` [Compound 152, (6R)-17-amino-6-hydroxy-12-(3-phenylcyclobutyl)-6,15-bis (trifluoromethyl)-19-oxa-3,4,12,18-tetrazatricyclo [12.3.1.12,5] nonadeca-1(18),2,4,14,1 6-pentaen-13-one], for which the EC50 was < 0.5 µM.
As for `Nc1cc(C(F)(F)F)c2nc1-c1nnc(o1)[C@@](O)(C(F)(F)F)CCCCCN(Cc1ccc(OC(F)(F)F)c(Cl)c1)C2=O` [Compound 153, (6R)-17-amino-12-[[3-chloro-4-(trifluoromethoxy)phenyl]methyl]-6-hydroxy-6,15-bis(trifluoromethyl)-19-oxa-3,4,12,18-tetrazatricyclo [12.3.1.12,5] nonadeca-1(18),2,4,14,1 6-pentaen-13-one], the figure is < 0.5 µM; as for `C[C@@H](c1ccc(OC(F)(F)F)cc1)N1CCCCC[C@](O)(C(F)(F)F)C2=NN=C(O2)c2nc(c(C(F)(F)F)cc2N)C1=O` [Compound 154, (6R)-17-amino-6-hydroxy-12-[(1S)-1-[4-(trifluoromethoxy)phenyl]ethyl]-6,15-bis (trifluoromethyl)-19-oxa-3,4,12,18-tetrazatricyclo [12.3.1.12,5] nonadeca-1(18),2,4,14,1 6-pentaen-13-one], < 0.5 µM; as for `COc1ccccc1CN1CCCCC[C@](O)(C(F)(F)F)C2=NN=C(O2)c2nc(c(C(F)(F)F)cc2N)C1=O` [Compound 155, (6R)-17-amino-6-hydroxy-12-[(2-methoxyphenyl)methyl]-6,15-bis (trifluoromethyl)-19-oxa-3,4,12,18-tetrazatricyclo [12.3.1.12,5] nonadeca-1(18),2,4,14,1 6-pentaen-13-one], < 0.5 µM.
As for `Nc1cc(C(F)(F)F)c2nc1-c1nnc(o1)[C@@](O)(C(F)(F)F)CCCCCN(Cc1ccccc1C(F)(F)F)C2=O` [Compound 156, (6R)-17-amino-6-hydroxy-6,15-bis (trifluoromethyl)-12-[[2-(trifluoromethyl)phenyl]methyl]-19-oxa-3,4,12,18-tetrazatricyclo [12.3.1.12,5] nonadeca-1(18),2,4,14,1 6-pentaen-13-one], the figure is < 0.5 µM; as for `Cc1cc(OC(F)(F)F)ccc1CN1CCCCC[C@](O)(C(F)(F)F)C2=NN=C(O2)c2nc(c(C(F)(F)F)cc2N)C1=O` [Compound 157, (6R)-17-amino-6-hydroxy-12-[[2-methyl-4-(trifluoromethoxy)phenyl]methyl]-6,15-bis (trifluoromethyl)-19-oxa-3,4,12,18-tetrazatricyclo [12.3.1.12,5] nonadeca-1(18),2,4,14,1 6-pentaen-13-one], < 0.5 µM; as for `COc1cc(OC(F)(F)F)ccc1CN1CCCCC[C@](O)(C(F)(F)F)C2=NN=C(O2)c2nc(c(C(F)(F)F)cc2N)C1=O` [Compound 158, (6R)-17-amino-6-hydroxy-12-[[2-methoxy-4-(trifluoromethoxy)phenyl]methyl]-6,15-bis(trifluoromethyl)-19-oxa-3,4,12,18-tetrazatricyclo [12.3.1.12,5] nonadeca-1(18),2,4,14,1 6-pentaen-13-one], < 0.5 µM.
With `Nc1cc(C(F)(F)F)c2nc1-c1nnc(o1)[C@@](O)(C(F)(F)F)CCCCCN(Cc1ccc(OC(F)(F)F)cc1F)C2=O` [Compound 159, (6R)-17-amino-12-[[2-fluoro-4-(trifluoromethoxy)phenyl]methyl]-6-hydroxy-6,15-bis (trifluoromethyl)-19-oxa-3,4,12,18-tetrazatricyclo [12.3.1.12,5] nonadeca-1(18),2,4,14,1 6-pentaen-13-one], the 50% effective concentration (EC50) was < 0.5 µM.
As for `COc1ccc(CN2CCCCC[C@](O)(C(F)(F)F)C3=NN=C(O3)c3nc(c(C(F)(F)F)cc3N)C2=O)cc1F` [Compound 160, (6R)-17-amino-12-[(3-fluoro-4-methoxy-phenyl)methyl]-6-hydroxy-6,15-bis (trifluoromethyl)-19-oxa-3,4,12,18-tetrazatricyclo [12.3.1.12,5] nonadeca-1(18),2,4,14,1 6-pentaen-13-one], the EC50 was < 0.5 µM.
In the case of `Nc1cc(C(F)(F)F)c2nc1-c1nnc(o1)[C@@](O)(C(F)(F)F)CCCCCN(Cc1ccc(OC(F)(F)C(F)F)cc1)C2=O` [Compound 161, (6R)-17-amino-6-hydroxy-12-[[4-(1,1,2,2-tetrafluoroethoxy)phenyl]methyl]-6,15-bis (trifluoromethyl)-19-oxa-3,4,12,18-tetrazatricyclo [12.3.1.12,5] nonadeca-1(18),2,4,14,1 6-pentaen-13-one], the EC50 is < 0.5 µM.
In the case of `CCCc1ccc(CN2CCCCC[C@](O)(C(F)(F)F)C3=NN=C(O3)c3nc(c(C(F)(F)F)cc3N)C2=O)cc1` [Compound 162, (6R)-17-amino-6-hydroxy-12-[(4-propylphenyl)methyl]-6,15-bis (trifluoromethyl)-19-oxa-3,4,12,18-tetrazatricyclo [12.3.1.12,5] nonadeca-1(18),2,4,14,1 6-pentaen-13-one], the EC50 is < 0.5 µM.
For the molecule `COc1cc(CN2CCCCC[C@](O)(C(F)(F)F)C3=NN=C(O3)c3nc(c(C(F)(F)F)cc3N)C2=O)ccc1F` [Compound 163, (6R)-17-amino-12-[(4-fluoro-3-methoxy-phenyl)methyl]-6-hydroxy-6,15-bis (trifluoromethyl)-19-oxa-3,4,12,18-tetrazatricyclo [12.3.1.12,5] nonadeca-1(18),2,4,14,1 6-pentaen-13-one], the EC50 is < 0.5 µM.
On to `COc1cc(F)ccc1CN1CCCCC[C@](O)(C(F)(F)F)C2=NN=C(O2)c2nc(c(C(F)(F)F)cc2N)C1=O` [Compound 164, (6R)-17-amino-12-[(4-fluoro-2-methoxy-phenyl)methyl]-6-hydroxy-6,15-bis (trifluoromethyl)-19-oxa-3,4,12,18-tetrazatricyclo [12.3.1.12,5] nonadeca-1(18),2,4,14,1 6-pentaen-13-one], for which the EC50 was < 0.5 µM.
For `Cc1cc(CN2CCCCC[C@](O)(C(F)(F)F)C3=NN=C(O3)c3nc(c(C(F)(F)F)cc3N)C2=O)ccc1OC(F)(F)F` [Compound 165], the EC50 is < 0.5 µM.
As to `Nc1cc(C(F)(F)F)c2nc1-c1nnc(o1)[C@@](O)(C(F)(F)F)CCCCCN(Cc1cccc(-c3ccccc3)c1)C2=O` [Compound 166, (6R)-17-amino-6-hydroxy-12-[(3-phenylphenyl)methyl]-6,15-bis (trifluoromethyl)-19-oxa-3,4,12,18-tetrazatricyclo [12.3.1.12,5] nonadeca-1(18),2,4,14,1 6-pentaen-13-one], the EC50 is < 0.5 µM.
